Patent publication US9789100B2, “Compounds as rearranged during transfection (RET) inhibitors” (GlaxoSmithKline Intellectual Property Development Limited, priority 2013, dated 2017)
Where a name gives a salt, the structure may show the parent alone. Read-outs that look alike come from different tables or passages of the source.

Tests used:
[1] = biological target: Human RET kinase cytoplasmic domain (Homo sapiens (Human), UniProt P07949); assay: RET kinase enzymatic assay; format: biochemical; conditions: human RET kinase enzymatic assay (Table 2)
Chain of Human RET kinase cytoplasmic domain (P07949 658-1114): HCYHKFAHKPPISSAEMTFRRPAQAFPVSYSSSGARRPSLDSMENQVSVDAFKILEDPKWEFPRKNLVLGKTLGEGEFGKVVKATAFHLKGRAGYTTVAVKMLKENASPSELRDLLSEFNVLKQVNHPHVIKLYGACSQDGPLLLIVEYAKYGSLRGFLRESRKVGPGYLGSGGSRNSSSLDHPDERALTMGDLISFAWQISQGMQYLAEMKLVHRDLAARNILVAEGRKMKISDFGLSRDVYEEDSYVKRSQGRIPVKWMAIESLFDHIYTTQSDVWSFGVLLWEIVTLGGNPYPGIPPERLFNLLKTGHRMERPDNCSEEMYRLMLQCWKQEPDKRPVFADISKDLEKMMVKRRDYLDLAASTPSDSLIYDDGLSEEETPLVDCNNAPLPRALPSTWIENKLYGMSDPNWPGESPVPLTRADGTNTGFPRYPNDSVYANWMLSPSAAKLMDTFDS
Description: RET Kinase Enzymatic Assay
GST-RET was purified using glutathione sepharose chromatography. The RET kinase enzymatic assay was performed in a total volume of 10 uL with increasing concentrations of RET kinase inhibitor as a singlet in a 384 well format as follows: RET inhibitor compound plates are prepared by adding 100 nL of RET inhibitor at different concentrations to a 384-well plate. 5 μL/well of a 2× enzyme mix (50 mM HEPES (4-(2-hydroxyethyl)-1-piperazineethanesulfonic acid); 1 mM CHAPS (3[(3-cholamidopropyl)dimethylammonio]-1-propanesulfonate); 0.1 mg/mL BSA (bovine serum albumin); 1 mM DTT (dithiothreitol); 0.2 nM RET kinase) was added to the 384-well plate and incubated for 30 minutes at 23° C.

TT cells = assay: RET kinase cell-based proliferation assay; parameters: species or system human; conditions: 192 h, read-out: RET IC50
From the text: RET Kinase Cell-Based Proliferation Assay

[2] = biological target: constitutive RET kinase phosphorylation in TT cells (Homo sapiens (Human), UniProt P07949, C634W); assay: RET kinase cell-based mechanistic assay
Chain of constitutive RET kinase phosphorylation in TT cells (P07949 29-1114 C634W): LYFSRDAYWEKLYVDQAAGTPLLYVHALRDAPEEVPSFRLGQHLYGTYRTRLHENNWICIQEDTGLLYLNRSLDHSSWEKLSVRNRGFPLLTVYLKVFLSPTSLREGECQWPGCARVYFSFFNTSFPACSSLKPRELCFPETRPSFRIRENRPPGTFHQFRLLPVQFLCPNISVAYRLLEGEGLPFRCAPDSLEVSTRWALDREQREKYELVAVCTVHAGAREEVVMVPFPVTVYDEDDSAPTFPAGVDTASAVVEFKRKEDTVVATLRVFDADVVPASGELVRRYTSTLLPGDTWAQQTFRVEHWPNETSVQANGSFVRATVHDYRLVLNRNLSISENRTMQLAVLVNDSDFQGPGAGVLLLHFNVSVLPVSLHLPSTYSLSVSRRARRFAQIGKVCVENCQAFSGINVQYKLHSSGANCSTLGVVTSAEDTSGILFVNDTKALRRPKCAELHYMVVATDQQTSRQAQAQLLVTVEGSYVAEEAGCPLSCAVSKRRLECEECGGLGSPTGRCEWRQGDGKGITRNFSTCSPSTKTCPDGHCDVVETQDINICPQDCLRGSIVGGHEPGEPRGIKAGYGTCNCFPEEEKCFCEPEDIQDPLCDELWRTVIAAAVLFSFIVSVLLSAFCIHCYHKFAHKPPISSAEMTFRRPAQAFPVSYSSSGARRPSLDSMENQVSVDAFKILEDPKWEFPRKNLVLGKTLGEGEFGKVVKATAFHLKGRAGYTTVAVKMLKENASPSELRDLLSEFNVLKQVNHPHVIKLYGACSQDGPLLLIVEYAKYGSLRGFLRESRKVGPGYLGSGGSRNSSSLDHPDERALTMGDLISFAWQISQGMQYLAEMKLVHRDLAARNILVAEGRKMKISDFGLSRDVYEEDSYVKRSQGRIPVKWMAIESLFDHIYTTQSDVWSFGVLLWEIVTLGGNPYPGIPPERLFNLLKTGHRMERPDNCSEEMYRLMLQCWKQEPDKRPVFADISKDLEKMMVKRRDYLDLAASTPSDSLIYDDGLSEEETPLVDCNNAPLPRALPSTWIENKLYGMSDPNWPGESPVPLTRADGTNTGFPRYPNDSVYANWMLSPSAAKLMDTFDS
Description: RET Kinase Cell-Based Mechanistic Assay
The potency of the compound of the invention was tested for its ability to inhibit constitutive RET kinase phosphorylation in cell-based assay. […] 1.0E5 TT cells/well were plated in a 96-well cell culture plate and allowed to adhere overnight. […] IC50s were fitted using GraphPad Prism to a sigmoidal dose response.

[3] = human RET kinase cell-based proliferation assay, TT cells, eight days (Table 4)

Q: How did the IC50 [1] turn out when `CCOc1cc(-c2ccc(CC(=O)Nc3cnc(CC#N)c(C(F)(F)F)c3)c(F)c2)c[nH]c1=O` [Example 14, N-(6-(Cyanomethyl)-5-(trifluoromethyl)pyridin-3-yl)-2-(4-(5-ethoxy-6-oxo-1,6-dihydropyridin-3-yl)-2-fluorophenyl)acetamide hydrochloride] was run?
A: 500 to 10000 nM

Q: With `CCOc1cc(-c2ccc(CC(=O)Nc3cc(C(F)(F)F)cc(C(F)(F)F)c3)c(F)c2)c[nH]c1=O` [Example 25] as the compound, how does the IC50 [1] read?
A: < 100 nM

Q: With `CCOc1cc(-c2ccc(CC(=O)Nc3ccc(CC(C)(C)CO)c(C(F)(F)F)c3)c(F)c2)c[nH]c1=O` [Example 5, 2-(4-(5-Ethoxy-6-oxo-1,6-dihydropyridin-3-yl)-2-fluorophenyl)-N-(4-(3-hydroxy-2,2-dimethylpropyl)-3-(trifluoromethyl)phenyl)acetamide] as the compound, how does the IC50 [1] read?
A: < 100 nM

Q: How did the IC50 [1] turn out when `CCOc1cc(-c2ccc(CC(=O)Nc3ccc(CN(C)C)c(C(F)(F)F)c3)c(F)c2)c[nH]c1=O` [Example 17, N-(4-((Dimethylamino)methyl)-3-(trifluoromethyl)phenyl)-2-(4-(5-ethoxy-6-oxo-1,6-dihydropyridin-3-yl)-2-fluorophenyl)acetamide hydrochloride] was run?
A: < 100 nM

Q: `CCOc1cc(-c2ccc(CC(=O)Nc3cnc(C(C)(C)O)c(C(F)(F)F)c3)c(F)c2)c[nH]c1=O` [Example 1, 2-(4-(5-Ethoxy-6-oxo-1,6-dihydropyridin-3-yl)-2-fluorophenyl)-N-(6-(2-hydroxypropan-2-yl)-5-(trifluoromethyl)pyridin-3-yl)acetamide] was tested. Which IC50 [1] did it give?
A: < 100 nM

Q: With `CCOc1cc(-c2ccc(CC(=O)Nc3ccc(CC(C)(C)CO)c(C(F)(F)F)c3)cc2F)c[nH]c1=O` [Example 6, 2-(4-(5-Ethoxy-6-oxo-1,6-dihydropyridin-3-yl)-3-fluorophenyl)-N-(4-(3-hydroxy-2,2-dimethylpropyl)-3-(trifluoromethyl)phenyl)acetamide] as the compound, how does the IC50 [1] read?
A: < 100 nM

Q: Which IC50 [1] does the source give for `CCOc1cc(=O)[nH]cc1-c1ccc(CC(=O)Nc2ccc(CC(C)(C)CO)c(C(F)(F)F)c2)cc1F` [Example 32, 2-(4-(4-Ethoxy-6-oxo-1,6-dihydropyridin-3-yl)-3-fluorophenyl)-N-(4-(3-hydroxy-2,2-dimethylpropyl)-3-(trifluoromethyl)phenyl)acetamide] here?
A: < 100 nM

Q: What about the IC50 (TT cells; [3]) of the same compound?
A: < 100 nM

Q: And the IC50 [2]?
A: < 100 nM

Q: With `CCOc1cc(-c2ccc(CC(=O)Nc3cc(-n4cc(C)cn4)cc(C(F)(F)F)c3)c(F)c2)c[nH]c1=O` [Example 34, 2-(4-(5-ethoxy-6-oxo-1,6-dihydropyridin-3-yl)-2-fluorophenyl)-N-(3-(4-methyl-1H-pyrazol-1-yl)-5-(trifluoromethyl)phenyl)acetamide hydrochloride] as the compound, how does the IC50 [1] read?
A: < 100 nM

Q: And the IC50 (TT cells; Homo sapiens, TT)?
A: 100 to 500 nM

Q: What about the IC50 [2] of the same compound?
A: 100 to 500 nM

Q: Which IC50 [1] does the source give for `CCOc1cc(-c2ccc(CC(=O)Nc3cc(C(F)(F)F)c(F)cc3F)c(F)c2)c[nH]c1=O` [Example 24] here?
A: < 100 nM

Q: For `CCOc1cc(-c2ccc(CC(=O)Nc3ccc(CN4CCN(CC)CC4)c(C(F)(F)F)c3)c(F)c2)c[nH]c1=O` [Example 21, 2-(4-(5-Ethoxy-6-oxo-1,6-dihydropyridin-3-yl)-2-fluorophenyl)-N-(4-((4-ethylpiperazin-1-yl)methyl)-3-(trifluoromethyl)phenyl)acetamide, dihydrochloride], which IC50 [1] is on record?
A: < 100 nM

Q: And the IC50 [2]?
A: < 100 nM

Q: With `CCOc1cc(-c2ccc(CC(=O)Nc3cc(C(C)(C)C(F)(F)F)n[nH]3)c(F)c2)c[nH]c1=O` [Example 42, 2-(4-(5-ethoxy-6-oxo-1,6-dihydropyridin-3-yl)-2-fluorophenyl)-N-(3-(1,1,1-trifluoro-2-methylpropan-2-yl)-1H-pyrazol-5-yl)acetamide hydrochloride] as the compound, how does the IC50 [1] read?
A: < 100 nM

Q: And the IC50 (TT cells; Homo sapiens, TT)?
A: < 100 nM

Q: What about the IC50 [2] of the same compound?
A: < 100 nM

Q: How did the IC50 [1] turn out when `CCOc1cc(-c2ccc(CC(=O)Nc3cc(C(C)(C)C(F)(F)F)nn3C)c(F)c2)c[nH]c1=O` [Example 41, 2-(4-(5-ethoxy-6-oxo-1,6-dihydropyridin-3-yl)-2-fluorophenyl)-N-(1-methyl-3-(1,1,1-trifluoro-2-methylpropan-2-yl)-1H-pyrazol-5-yl)acetamide hydrochloride] was run?
A: < 100 nM

Q: And the IC50 (TT cells; Homo sapiens, TT)?
A: 100 to 500 nM

Q: And the IC50 [2]?
A: < 100 nM

Q: For `CCOc1cc(=O)[nH]cc1-c1ccc(CC(=O)Nc2cnc(OCCN(C)C)c(C(F)(F)F)c2)c(F)c1` [Example 10, N-(6-(2-(Dimethylamino)ethoxy)-5-(trifluoromethyl)pyridin-3-yl)-2-(4-(4-ethoxy-6-oxo-1,6-dihydropyridin-3-yl)-2-fluorophenyl)acetamide dihydrochloride], which IC50 [1] is on record?
A: 100 to 500 nM

Q: What about the IC50 (TT cells; Homo sapiens, TT) of the same compound?
A: 500 to 10000 nM

Q: What about the IC50 [2] of the same compound?
A: 500 to 10000 nM

Q: Which results are given for `CCOc1cc(-c2ccc(CC(=O)Nc3cc(-c4cn[nH]c4)cc(C(F)(F)F)c3)c(F)c2)c[nH]c1=O` [Example 36, N-(3-(1H-pyrazol-4-yl)-5-(trifluoromethyl)phenyl)-2-(4-(5-ethoxy-6-oxo-1,6-dihydropyridin-3-yl)-2-fluorophenyl)acetamide hydrochloride]?
A: IC50 [1]: < 100 nM; IC50 (TT cells; Homo sapiens, TT): 100 to 500 nM; IC50 [2]: < 100 nM

Q: How did the IC50 [1] turn out when `CCOc1cc(-c2ccc(CC(=O)Nc3ccc(C#N)c(C(F)(F)F)c3)c(F)c2)c[nH]c1=O` [Example 9, N-(4-Cyano-3-(trifluoro-methyl)phenyl)-2-(4-(5-ethoxy-6-oxo-1,6-dihydro-pyridin-3-yl)-2-fluorophenyl)acetamide] was run?
A: < 100 nM

Q: `CCOc1cc(-c2ccc(CC(=O)Nc3cc(-n4cnc(C)c4)cc(C(F)(F)F)c3)c(F)c2)c[nH]c1=O` [Example 11, 2-(4-(5-Ethoxy-6-oxo-1,6-dihydropyridin-3-yl)-2-fluorophenyl)-N-(3-(4-methyl-1H-imidazol-1-yl)-5-(trifluoromethyl)phenyl)acetamide hydrochloride] was tested. Which IC50 [1] did it give?
A: < 100 nM

Q: Which results are given for `CCOc1cc(-c2ccc(CC(=O)Nc3ccc(CC(F)(F)CO)c(C(F)(F)F)c3)c(F)c2)c[nH]c1=O` [Example 43, N-(4-(2,2-difluoro-3-hydroxypropyl)-3-(trifluoromethyl)phenyl)-2-(4-(5-ethoxy-6-oxo-1,6-dihydropyridin-3-yl)-2-fluorophenyl)acetamide]?
A: IC50 [1]: < 100 nM; IC50 (TT cells; [3]): < 100 nM; IC50 [2]: < 100 nM

Q: Which IC50 [1] does the source give for `CCOc1cc(-c2ccc(CC(=O)Nc3cc(-n4ccc(C)n4)cc(C(F)(F)F)c3)c(F)c2)c[nH]c1=O` [Example 35, 2-(4-(5-ethoxy-6-oxo-1,6-dihydropyridin-3-yl)-2-fluorophenyl)-N-(3-(3-methyl-1H-pyrazol-1-yl)-5-(trifluoromethyl)phenyl)acetamide hydrochloride] here?
A: < 100 nM

Q: And the IC50 (TT cells; Homo sapiens, TT)?
A: 100 to 500 nM

Q: What about the IC50 [2] of the same compound?
A: < 100 nM

Q: What does the source list for `CCOc1cc(-c2ccc(CC(=O)Nc3cc(C(C)(C)C(F)(F)F)no3)c(F)c2)c[nH]c1=O` [Example 28, 2-(4-(5-Ethoxy-6-oxo-1,6-dihydropyridin-3-yl)-2-fluorophenyl)-N-(3-(1,1,1-trifluoro-2-methylpropan-2-yl)isoxazol-5-yl)acetamide]?
A: IC50 [1]: < 100 nM; IC50 (TT cells; [3]): < 100 nM; IC50 [2]: < 100 nM

Q: For `CCOc1cc(-c2ccc(CC(=O)Nc3cc(C(C)(C)C(F)(F)F)on3)c(F)c2)c[nH]c1=O` [Example 19, 2-(4-(5-Ethoxy-6-oxo-1,6-dihydropyridin-3-yl)-2-fluorophenyl)-N-(5-(1,1,1-trifluoro-2-methylpropan-2-yl)isoxazol-3-yl)acetamide], which IC50 [1] is on record?
A: < 100 nM

Q: For `CCOc1cc(-c2ccc(CC(=O)Nc3ccc(OCCO)c(C(F)(F)F)c3)c(F)c2)c[nH]c1=O` [Example 13, 2-(4-(5-Ethoxy-6-oxo-1,6-dihydropyridin-3-yl)-2-fluorophenyl)-N-(4-(2-hydroxyethoxy)-3-(trifluoromethyl)phenyl)acetamide], which IC50 [1] is on record?
A: < 100 nM

Q: How did the IC50 [1] turn out when `CCOc1cc(-c2ccc(CC(=O)Nc3ccc(C(N)=O)c(C(F)(F)F)c3)c(F)c2)c[nH]c1=O` [Example 23] was run?
A: 100 to 500 nM

Q: With `CCOc1cc(-c2ccc(CC(=O)Nc3ccc(Cl)c(Cl)c3)c(F)c2)c[nH]c1=O` [Example 18, N-(3,4-Dichlorophenyl)-2-(4-(5-ethoxy-6-oxo-1,6-dihydropyridin-3-yl)-2-fluorophenyl)acetamide] as the compound, how does the IC50 [1] read?
A: 100 to 500 nM

Q: With `CCOc1cc(-c2ccc(CC(=O)Nc3ccc(Cl)c(C(F)(F)F)c3)c(F)c2)c[nH]c1=O` [Example 16, N-(4-Chloro-3-(trifluoromethyl)phenyl)-2-(4-(5-ethoxy-6-oxo-1,6-dihydropyridin-3-yl)-2-fluorophenyl)acetamide] as the compound, how does the IC50 [1] read?
A: < 100 nM

Q: Which IC50 [1] does the source give for `CCOc1cc(-c2ccc(CC(=O)Nc3cc(F)ccc3F)c(F)c2)c[nH]c1=O` [Example 22, N-(2,5-Difluorophenyl)-2-(4-(5-ethoxy-6-oxo-1,6-dihydropyridin-3-yl)-2-fluorophenyl)acetamide] here?
A: 500 to 10000 nM

Q: With `CCOc1cc(=O)[nH]cc1-c1ccc(CC(=O)Nc2ccc(C#N)c(C(F)(F)F)c2)cc1F` [Example 7, N-(4-Cyano-3-(trifluoromethyl)phenyl)-2-(4-(4-ethoxy-6-oxo-1,6-dihydropyridin-3-yl)-3-fluorophenyl)acetamide] as the compound, how does the IC50 [1] read?
A: < 100 nM

Q: With `CCOc1ncc(NC(=O)Cc2ccc(-c3c[nH]c(=O)c(OCC)c3)cc2F)cc1C(F)(F)F` [Example 2, N-(6-Ethoxy-5-(trifluoromethyl)pyridin-3-yl)-2-(4-(5-ethoxy-6-oxo-1,6-dihydropyridin-3-yl)-2-fluorophenyl)acetamide hydrochloride] as the compound, how does the IC50 [1] read?
A: < 100 nM

Q: For `CCOc1cc(-c2ccc(CC(=O)Nc3cc(-c4nn[nH]n4)cc(C(F)(F)F)c3)c(F)c2)c[nH]c1=O` [Example 44, N-(3-(2H-tetrazol-5-yl)-5-(trifluoromethyl)phenyl)-2-(4-(5-ethoxy-6-oxo-1,6-dihydropyridin-3-yl)-2-fluorophenyl)acetamide], which IC50 [1] is on record?
A: < 100 nM
